#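 Step 1: Grow cells in 96-well plates. Step 2: Expose to compound for 48 hours at 5 concentrations. Step 3: Interpolate endpoints linearly; if unreached, use highest concentration. TGI: concentration producing complete growth inhibition.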
# Columns and labels:
# Assay in all cases: DTP human tumour cell line panel, 48 h
# UO-31 renal = tested on: UO-31 renal
# NCI-H226 lung = tested on: NCI-H226 lung
# SF-295 CNS = tested on: SF-295 CNS
# A549 NSCLC = tested on: A549 NSCLC
# MALME-3M melanoma = tested on: MALME-3M melanoma
# OVCAR-5 ovarian = tested on: OVCAR-5 ovarian
# SR leukemia = tested on: SR leukemia
# ACHN renal = tested on: ACHN renal
# CCRF-CEM leukemia = tested on: CCRF-CEM leukemia
# HCC-2998 colon = tested on: HCC-2998 colon
# SF-268 CNS = tested on: SF-268 CNS
# HOP-18 NSCLC = tested on: HOP-18 NSCLC
# UACC-257 melanoma = tested on: UACC-257 melanoma
# KM20L2 colon = tested on: KM20L2 colon
# HL-60(TB) leukemia = tested on: HL-60(TB) leukemia
# XF 498 CNS = tested on: XF 498 CNS
# OVCAR-3 ovarian = tested on: OVCAR-3 ovarian
# MOLT-4 leukemia = tested on: MOLT-4 leukemia
# RXF-631 renal = tested on: RXF-631 renal
# HT29 colon = tested on: HT29 colon
# HCT-15 colon = tested on: HCT-15 colon
# DMS 273 small cell lung = tested on: DMS 273 small cell lung
# RXF 393 renal = tested on: RXF 393 renal
# 786-0 renal = tested on: 786-0 renal
# SK-MEL-28 melanoma = tested on: SK-MEL-28 melanoma
# SN12C renal = tested on: SN12C renal
# HOP-92 NSCLC = tested on: HOP-92 NSCLC
# OVCAR-8 ovarian = tested on: OVCAR-8 ovarian
# SNB-78 CNS = tested on: SNB-78 CNS
# COLO 205 colon = tested on: COLO 205 colon
# SW-620 colon = tested on: SW-620 colon
# SNB-19 CNS = tested on: SNB-19 CNS
# RPMI-8226 leukemia = tested on: RPMI-8226 leukemia
# NCI-H23 lung = tested on: NCI-H23 lung
# M19-MEL melanoma = tested on: M19-MEL melanoma
# EKVX NSCLC = tested on: EKVX NSCLC
# SF-539 CNS = tested on: SF-539 CNS
# SK-MEL-2 melanoma = tested on: SK-MEL-2 melanoma
# LXFL 529 NSCLC = tested on: LXFL 529 NSCLC
# U251 CNS = tested on: U251 CNS
# TK-10 renal = tested on: TK-10 renal
# HOP-62 NSCLC = tested on: HOP-62 NSCLC
# NCI-H460 lung = tested on: NCI-H460 lung
# HCT-116 colon = tested on: HCT-116 colon
# K-562 leukemia = tested on: K-562 leukemia
# M14 melanoma = tested on: M14 melanoma
# SK-MEL-5 melanoma = tested on: SK-MEL-5 melanoma
# KM12 colon = tested on: KM12 colon
# SNB-75 CNS = tested on: SNB-75 CNS
# UACC-62 melanoma = tested on: UACC-62 melanoma
# DMS 114 small cell lung = tested on: DMS 114 small cell lung
# SK-OV-3 ovarian = tested on: SK-OV-3 ovarian
# A498 renal = tested on: A498 renal
# DLD-1 colon = tested on: DLD-1 colon
# CAKI-1 renal = tested on: CAKI-1 renal
# OVCAR-4 ovarian = tested on: OVCAR-4 ovarian
# NCI-H522 lung = tested on: NCI-H522 lung
# LOX IMVI melanoma = tested on: LOX IMVI melanoma
# IGROV1 ovarian = tested on: IGROV1 ovarian
compound,measurement,setting,value
Clc1ccc(CNc2nc3ccccc3nc2-c2cccs2)c(Cl)c1,TGI,UO-31 renal,> 100 µM
same,TGI,NCI-H226 lung,> 100 µM
same,TGI,SF-295 CNS,> 100 µM
same,TGI,A549 NSCLC,> 100 µM
same,TGI,MALME-3M melanoma,> 100 µM
same,TGI,OVCAR-5 ovarian,> 100 µM
same,TGI,SR leukemia,> 100 µM
same,TGI,ACHN renal,> 100 µM
same,TGI,CCRF-CEM leukemia,> 100 µM
same,TGI,HCC-2998 colon,> 100 µM
same,TGI,SF-268 CNS,> 100 µM
same,TGI,HOP-18 NSCLC,> 100 µM
same,TGI,UACC-257 melanoma,> 100 µM
same,TGI,KM20L2 colon,> 100 µM
same,TGI,HL-60(TB) leukemia,> 100 µM
same,TGI,XF 498 CNS,> 100 µM
same,TGI,OVCAR-3 ovarian,> 100 µM
same,TGI,MOLT-4 leukemia,> 100 µM
same,TGI,RXF-631 renal,> 100 µM
same,TGI,HT29 colon,> 100 µM
same,TGI,HCT-15 colon,> 100 µM
same,TGI,DMS 273 small cell lung,> 100 µM
same,TGI,RXF 393 renal,> 100 µM
same,TGI,786-0 renal,> 100 µM
same,TGI,SK-MEL-28 melanoma,> 100 µM
same,TGI,SN12C renal,> 100 µM
same,TGI,HOP-92 NSCLC,76.6 µM
same,TGI,OVCAR-8 ovarian,> 100 µM
same,TGI,SNB-78 CNS,> 100 µM
same,TGI,COLO 205 colon,> 100 µM
same,TGI,SW-620 colon,> 100 µM
same,TGI,SNB-19 CNS,> 100 µM
same,TGI,RPMI-8226 leukemia,> 100 µM
same,TGI,NCI-H23 lung,> 100 µM
same,TGI,M19-MEL melanoma,> 100 µM
same,TGI,EKVX NSCLC,> 100 µM
same,TGI,SF-539 CNS,> 100 µM
same,TGI,SK-MEL-2 melanoma,> 100 µM
same,TGI,LXFL 529 NSCLC,> 100 µM
same,TGI,U251 CNS,> 100 µM
same,TGI,TK-10 renal,> 100 µM
same,TGI,HOP-62 NSCLC,> 100 µM
same,TGI,NCI-H460 lung,> 100 µM
same,TGI,HCT-116 colon,> 100 µM
same,TGI,K-562 leukemia,> 100 µM
Clc1cc(Cl)c2c(Cl)cc(Cl)c3c2c1N=S=N3,TGI,UO-31 renal,> 100 µM
same,TGI,M14 melanoma,> 100 µM
same,TGI,NCI-H226 lung,> 100 µM
same,TGI,SK-MEL-5 melanoma,> 100 µM
same,TGI,SF-295 CNS,> 100 µM
same,TGI,A549 NSCLC,> 100 µM
same,TGI,MALME-3M melanoma,> 100 µM
same,TGI,OVCAR-5 ovarian,> 100 µM
same,TGI,CCRF-CEM leukemia,> 100 µM
same,TGI,HCC-2998 colon,> 100 µM
same,TGI,SF-268 CNS,> 100 µM
same,TGI,HOP-18 NSCLC,> 100 µM
same,TGI,UACC-257 melanoma,> 100 µM
same,TGI,KM12 colon,> 100 µM
same,TGI,KM20L2 colon,> 100 µM
same,TGI,HL-60(TB) leukemia,> 100 µM
same,TGI,SNB-75 CNS,> 100 µM
same,TGI,UACC-62 melanoma,> 100 µM
same,TGI,DMS 114 small cell lung,> 100 µM
same,TGI,XF 498 CNS,49 µM
same,TGI,OVCAR-3 ovarian,> 100 µM
same,TGI,SK-OV-3 ovarian,> 100 µM
same,TGI,MOLT-4 leukemia,> 100 µM
same,TGI,HT29 colon,> 100 µM
same,TGI,HCT-15 colon,> 100 µM
same,TGI,DMS 273 small cell lung,> 100 µM
same,TGI,RXF 393 renal,> 100 µM
same,TGI,786-0 renal,> 100 µM
same,TGI,SK-MEL-28 melanoma,> 100 µM
same,TGI,HOP-92 NSCLC,> 100 µM
same,TGI,A498 renal,> 100 µM
same,TGI,OVCAR-8 ovarian,> 100 µM
same,TGI,SNB-78 CNS,> 100 µM
same,TGI,COLO 205 colon,> 100 µM
same,TGI,SW-620 colon,> 100 µM
same,TGI,SNB-19 CNS,> 100 µM
same,TGI,DLD-1 colon,> 100 µM
same,TGI,CAKI-1 renal,> 100 µM
same,TGI,RPMI-8226 leukemia,> 100 µM
same,TGI,NCI-H23 lung,> 100 µM
same,TGI,M19-MEL melanoma,> 100 µM
same,TGI,EKVX NSCLC,> 100 µM
same,TGI,SF-539 CNS,> 100 µM
same,TGI,OVCAR-4 ovarian,> 100 µM
same,TGI,SK-MEL-2 melanoma,> 100 µM
same,TGI,LXFL 529 NSCLC,> 100 µM
same,TGI,U251 CNS,> 100 µM
same,TGI,NCI-H522 lung,> 100 µM
same,TGI,TK-10 renal,> 100 µM
same,TGI,LOX IMVI melanoma,> 100 µM
same,TGI,HCT-116 colon,> 100 µM
same,TGI,IGROV1 ovarian,> 100 µM
same,TGI,K-562 leukemia,> 100 µM

# Source: PubChem BioAssay (NCI)
